Measured values from patent publication US20230040770A1, “HETEROCYCLIC COMPOUND AND USE THEREOF” (TAKEDA PHARMACEUTICAL COMPANY LIMITED, priority 2019, published 2023).

Target: T1, human orexin type 2 receptor (Homo sapiens, UniProt O43614)
T1 construct: expressed in transfected cells
T1 sequence (O43614 1-444): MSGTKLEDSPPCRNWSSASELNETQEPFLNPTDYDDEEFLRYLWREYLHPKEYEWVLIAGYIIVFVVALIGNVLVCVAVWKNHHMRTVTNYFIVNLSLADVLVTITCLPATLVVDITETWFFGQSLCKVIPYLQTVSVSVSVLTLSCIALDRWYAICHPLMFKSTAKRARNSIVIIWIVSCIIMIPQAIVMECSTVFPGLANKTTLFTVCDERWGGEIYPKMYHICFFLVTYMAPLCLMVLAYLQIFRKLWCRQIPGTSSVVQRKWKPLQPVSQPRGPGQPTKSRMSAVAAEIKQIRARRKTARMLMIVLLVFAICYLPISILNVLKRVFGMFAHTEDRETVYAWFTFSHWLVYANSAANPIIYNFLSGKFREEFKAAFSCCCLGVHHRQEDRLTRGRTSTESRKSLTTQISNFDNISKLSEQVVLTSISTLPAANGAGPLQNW
Test: Measurement of orexin type 2 receptor agonist activity (calcium indicator fluorescence, CHO cells forcibly expressing human OX2 receptor)
Format: cell-based
Conditions: compound at 3 μM; 0% = DMSO, 100% = orexin A (human) 10 nM
Method in brief: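 Agonist response normalised between vehicle (0%) and orexin A at 10 nM final (100%), from kinetic Fluo-4 calcium signals recorded for about 2 min after compound addition. Cells: stable human OX2R CHO clone, dye-loaded 30 min at 37 °C plus 30 min at room temperature.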

| SMILES | OX2R agonist activity (3 μM, %) [%] |
| --- | --- |
| CCS(=O)(=O)N[C@@H]1[C@H](Cc2cccc(-c3cccc(OC(F)F)c3)c2F)N(C(=O)C2(O)CCC2)CC1(F)F [Example 552, N-[(2S,3R)-2-{[3′-(difluoromethoxy)-2-fluoro[1,1′-biphenyl]-3-yl]methyl}-4,4-difluoro-1-(1-hydroxycyclobutane-1-carbonyl)pyrrolidin-3-yl]ethanesulfonamide] | 94 |
| CCS(=O)(=O)N[C@@H]1[C@H](Cc2cccc(-c3cccc(F)c3F)c2F)N(C(=O)C2(O)CCC2)CC1(F)F [Example 274, N-{(2S,3R)-4,4-difluoro-1-(1-hydroxycyclobutane-1-carbonyl)-2-[(2,2′,3′-trifluoro[1,1′-biphenyl]-3-yl)methyl]pyrrolidin-3-yl}ethanesulfonamide] | 93 |
| CCS(=O)(=O)N[C@@H]1[C@H](Cc2cccc(-c3cccc(F)c3)c2F)N(C(=O)C23CC(C2)C3)CC1(F)F [Example 93, N-{(2S,3R)-1-(bicyclo[1.1.1]pentane-1-carbonyl)-2-[(2,3′-difluoro[1,1′-biphenyl]-3-yl)methyl]-4,4-difluoropyrrolidin-3-yl}ethanesulfonamide] | 98 |
| CCS(=O)(=O)N[C@@H]1[C@H](Cc2cccc(-c3cc(C)cc(F)c3)c2F)N(C(=O)N(C)C)CC1(F)F [Example 447, (2S,3R)-2-[(2,3′-difluoro-5′-methyl[1,1′-biphenyl]-3-yl)methyl]-3-[(ethanesulfonyl)amino]-4,4-difluoro-N,N-dimethylpyrrolidine-1-carboxamide] | 95 |
| CCS(=O)(=O)N[C@@H]1[C@H](Cc2cccc(-c3ccc(F)c(F)c3F)c2F)N(C(=O)C2CCO2)CC1(F)F (stereo partly drawn) [Example 470, N-{(2S,3R)-4,4-difluoro-1-(oxetane-2-carbonyl)-2-[(2,2′,3′,4′-tetrafluoro[1,1′-biphenyl]-3-yl)methyl]pyrrolidin-3-yl}ethanesulfonamide] | 103 |
| CCS(=O)(=O)N[C@@H]1[C@H](Cc2cccc(-c3cccc(OC)c3)c2F)N(C(=O)C2CC2)CC1(F)F [Example 512, N-{(2S,3R)-1-(cyclopropanecarbonyl)-4,4-difluoro-2-[(2-fluoro-3′-methoxy[1,1′-biphenyl]-3-yl)methyl]pyrrolidin-3-yl}ethanesulfonamide] | 95 |
| CN(C)C(=O)N1CC(F)(F)[C@H](NS(=O)(=O)C2CC2)[C@@H]1Cc1cccc(-c2cc(F)cc(F)c2)c1F [Example 524, (2S,3R)-3-[(cyclopropanesulfonyl)amino]-4,4-difluoro-N,N-dimethyl-2-[(2,3′,5′-trifluoro[1,1′-biphenyl]-3-yl)methyl]pyrrolidine-1-carboxamide] | 87 |
| Cc1cccc(-c2cccc(C[C@H]3[C@@H](NS(=O)(=O)C4CC4)C(F)(F)CN3C(=O)[C@H]3CCO3)c2F)c1F [Example 530, N-{(2S,3R)-2-[(2,2′-difluoro-3′-methyl[1,1′-biphenyl]-3-yl)methyl]-4,4-difluoro-1-[(2R)-oxetane-2-carbonyl]pyrrolidin-3-yl}cyclopropanesulfonamide] | 94 |
| CCS(=O)(=O)N[C@H]1[C@@H](F)CN(C(=O)[C@H]2CCCO2)[C@H]1Cc1cccc(-c2cc(F)cc(F)c2)c1F [Example 414, N-{(2S,3R,4S)-4-fluoro-1-[(2R)-oxolane-2-carbonyl]-2-[(2,3′,5′-trifluoro[1,1′-biphenyl]-3-yl)methyl]pyrrolidin-3-yl}ethanesulfonamide] | 95 |
| CCCC(=O)N1CC(F)(F)[C@H](NS(=O)(=O)CC)[C@@H]1Cc1cccc(-c2cccc(F)c2)c1F [Example 257, N-{(2S,3R)-1-butanoyl-2-[(2,3′-difluoro[1,1′-biphenyl]-3-yl)methyl]-4,4-difluoropyrrolidin-3-yl}ethanesulfonamide] | 96 |
| CCS(=O)(=O)N[C@H]1[C@@H](F)CN(C(=O)C(C)(C)O)[C@H]1Cc1cccc(-c2cccc(F)c2)c1F [Example 207, N-[(2S,3R,4S)-2-[(2,3′-difluoro[1,1′-biphenyl]-3-yl)methyl]-4-fluoro-1-(2-hydroxy-2-methylpropanoyl)pyrrolidin-3-yl]ethanesulfonamide] | 88 |
| CCS(=O)(=O)N[C@@H]1[C@H](Cc2cccc(-c3cccc(F)c3)c2F)N(C(=O)N2CCC2)CC1(F)F [Example 287, N-{(2S,3R)-1-(azetidine-1-carbonyl)-2-[(2,3′-difluoro[1,1′-biphenyl]-3-yl)methyl]-4,4-difluoropyrrolidin-3-yl}ethanesulfonamide] | 94 |
| CCS(=O)(=O)N[C@@H]1[C@H](Cc2cccc(-c3ccccc3)c2F)N(C(=O)C2CC2)CC1(F)F [Example 205, N-{(2S,3R)-1-(cyclopropanecarbonyl)-4,4-difluoro-2-[(2-fluoro[1,1′-biphenyl]-3-yl)methyl]pyrrolidin-3-yl}ethanesulfonamide] | 91 |
| CCS(=O)(=O)N[C@H]1[C@@H](F)CN(C(=O)C2CC2)[C@H]1Cc1cccc(-c2cc(C)cc(F)c2)c1F [Example 515, N-{(2S,3R,4S)-1-(cyclopropanecarbonyl)-2-[(2,3′-difluoro-5′-methyl[1,1′-biphenyl]-3-yl)methyl]-4-fluoropyrrolidin-3-yl}ethanesulfonamide] | 98 |
| CCS(=O)(=O)N[C@H]1[C@@H](F)CN(C(=O)N(C)C)[C@H]1Cc1cccc(-c2cc(F)ccc2F)c1F [Example 294, (2S,3R,4S)-3-[(ethanesulfonyl)amino]-4-fluoro-N,N-dimethyl-2-[(2,2′,5′-trifluoro[1,1′-biphenyl]-3-yl)methyl]pyrrolidine-1-carboxamide] | 96 |
| O=C(C1CCO1)N1C[C@H](F)[C@H](NS(=O)(=O)C2CC2)[C@@H]1Cc1cccc(-c2cc(F)cc(F)c2)c1F (stereo partly drawn) [Example 479, N-{(2S,3R,4S)-4-fluoro-1-(oxetane-2-carbonyl)-2-[(2,3′,5′-trifluoro[1,1′-biphenyl]-3-yl)methyl]pyrrolidin-3-yl}cyclopropanesulfonamide] | 93 |
| CCS(=O)(=O)N[C@H]1[C@@H](F)CN(C(=O)C23CC(C2)C3)[C@H]1Cc1cccc(-c2cccc(F)c2F)c1F [Example 366, N-{(2S,3R,4S)-1-(bicyclo[1.1.1]pentane-1-carbonyl)-4-fluoro-2-[(2,2′,3′-trifluoro[1,1′-biphenyl]-3-yl)methyl]pyrrolidin-3-yl}ethanesulfonamdie] | 96 |
| CN(C)S(=O)(=O)N[C@@H]1[C@H](Cc2cccc(-c3cccc(F)c3)c2F)N(C(=O)N2CCC2)CC1(F)F [Example 547, N′-{(2S,3R)-1-(azetidine-1-carbonyl)-2-[(2,3′-difluoro[1,1′-biphenyl]-3-yl)methyl]-4,4-difluoropyrrolidin-3-yl}-N,N-dimethylsulfuric diamide] | 98 |
